In US9259453B2, “Use of salmonella flagellin derivative in preparation of drug for preventing and treating inflammatory bowel diseases” (priority 2011, dated 2016):
Entries after “also recorded” stand apart in the source; their conditions may differ.

Key:
IBD patients = details: cited from earlier work
[1] = system: mice with ulcerative colitis in TNBS modeling; assay: Treatment of TNBS-induced ulcerative colitis (IBD) in mice, Example 2; type: in vivo, BALB/c mice
Method: Experimental Animal: Male BALB/c mice (7-8 weeks old, 25±5 g) were obtained from Experimental Animal Center of Academy of Military Medical Sciences (Beijing, China). Mice were provided sterile food and water, and 12 h light/12 h dark cycle. All animal experiments were approved by the Institutional Animal Care and Use Committee at Academy of Military Medical Sciences.
Reagents: 2,4,6-trinitrobenzene sulfonic acid (TNBS, were purchased from Sigma Chemical Co.), CZLC331 (prepared in Example 1), RT PCR kit (ID isFSK100, purchased from Toyobo Biotechnology Co., Ltd.).
Model preparation: Mice (hunger for 36 h) were anesthetized with isoflurane using anesthesia machine. To induce IBD, 150 mg/kg of TNBS (Sigma-Aldrich) in 38% ethanol (to break the intestinal epithelial barrier) was administered by the mouse gavage needle equipped with a 1 ml syringe, what the diameter of silicone tube is 2. 0 mm and the length is about 10 cm, the gavage needle was advanced into the rectum until the tip was 4 cm proximal to the anal verge. The total injection volume was 100 μl.
Experimental animal groups: model group, treatment group and control group (n=8). The control mice received 38% ethanol alone by using the same method described above, and normal feeding two days. The treatment group: BALB/c mice were treated therapeutically with CBLB502 (3.2 mg/kg) at 0.5 h after TNBS administration. At the same time, BALB/c mice were treated therapeutically with CBLB502 (0.2-6.4 mg/kg) from 0.5 h to 8 h after TNBS administration, and normal feeding two days. The mice of model group were normal feeding two days after TNBS administration.
Mice were monitored for the appearance of diarrhea, changes of body weight, and overall mortality. At the end of the experiment after TNBS administration two days, surviving mice were killed, blood samples were collected by cardiac puncture, and a 7-cm segment of the colon was excised for macroscopic (FIG. 1, FIG. 4 left, and FIG. 5) and microscopic damage evaluation (FIG. 2, FIG. 4 right, and FIG. 6). And the end of the colon after washing using physiological saline was kept at −80° C. frozen for follow-up testing.
2. Histological examination: The colonic samples were fixed in 4% buffered formalin overnight and then transferred to 70% ethanol, embedded in paraffin for sectioning, and then stained with hematoxylin and eosin (H&E) to examine the histological differences.

[2] = system: mice with ulcerative colitis in TNBS modeling; assay: Prevention of TNBS-induced IBD in mice, Example 3; type: in vivo, BALB/c mice
Method: Experimental Animals: the same as in Example 2.
Reagents: the same as in Example 2.
Model preparation: the same as in Example 2.
Experimental animal groups: model group, prevention group and control group (n=8). The prevention group: BALB/c mice were treated therapeutically with CBLB502 (3.2 mg/kg) before TNBS administration, and then the mice were given TNBS and normal feeding two days. The model group was normal feeding two days after TNBS administration. The control mice received 38% ethanol alone by using the same method described above, and normal feeding.
Test contents and test methods: the same as in Example 2.

[3] = statement, no test described; cited from earlier work
TLR family = assay: Expression of TLR family in colon by RT-PCR after treatment in TNBS modeling; type: in vivo, BALB/c mice; details: 3.2 mg/kg 4 h after TNBS
From the text: The colon samples were removed at the indicated times, washed with phosphate-buffered saline (pH 7.2), and cut in small pieces. Total RNA of colon samples what were control group, modeling group and treatment group were extracted by Total RNA kits II (Omega, Japan) according to the manufacturers' instructions, and then reverse-transcribed by the Reverse Transcription System (Sigma, USA). Subsequently, the TLRs and β-actin were amplified by PCR using the following primers (Table 1). The reaction system of PCR was 500, Ex Taq 0.250, 10× buffer 5 μl, dNTP 5 μl, template 2 μl, the upstream and downstream primers 1 μl, ddH2O 35.75 μl. The reaction condition of PCR is 95° C. 5 min, 95° C. 45 sec, 62° C. 45 sec, 72° C. 1 min, total 25 cycles, and then 72° C. 5 min. PCR products were identified on 2% agarose-gel electrophoresis followed by image analysis software.

[4] = given 0.5 h before TNBS modeling, two days, versus model group

Compound | side effects (IBD patients; after taking the drug) | effective rate (IBD patients; clinical drug) | markedly effective rate (IBD patients; clinical drug) [%] | onset (time until symptoms improved) (IBD patients; clinical) | clinical signs: blood in the stool, feeding/water intake, activity ([1]; 0.2-6.4 mg/kg intraperitoneal, 0.5 h to 8 h after TNBS, two days, versus model group) | colon appearance: congestion, edema, hemorrhage, ulcers ([1]; 0.2-6.4 mg/kg, 0.5 h to 8 h after TNBS, two days, versus model group) | colonic mucosa HE staining: cell structure, goblet cells, lymphocyte and neutrophil infiltration ([1]; 0.2-6.4 mg/kg, 0.5 h to 8 h after TNBS, versus model group) | cure rate ([1]; TNBS mice, intraperitoneal CZLC331) [%] | onset (time after administration to effect) ([1]; examples 2 and 3, all animals) [h] | effective rate ([1]; improvement of feeding, activity and blood in stool, all animals of treatment group and prevention group (examples 2 and 3)) [%] | effective rate of recovered colon mucosa ([1]; treatment group) [%] | clinical signs: blood in the stool, eat less, move less [2, 4] | colon: congestion, edema, hemorrhage [2, 4] | prevention of IBD (overall) ([2]; given before TNBS modeling) | side effects [3] | toxicity [3] | expression of TLR6 (TLR family; raised in model group) | expression of TLR7 (TLR family; raised in model group) | expression of TLR8 (TLR family; raised in model group) | expression of TLR family (TLR family; versus model group)
O=C(O)c1cc(/N=N/c2ccc(S(=O)(=O)Nc3ccccn3)cc2)ccc1O [sulfasalazine] | nausea, rash, neutropenia | about 90% | 50 | about two |  |  |  |  |  |  |  |  |  |  |  |  |  |  |  | 
CZLC331: Salmonella flagellin derivative, SEQ ID NO: 3: Tat protein transduction peptide plus flagellin residues 1-176 and 402-505 joined by flexible linker; 331 amino acids |  |  |  |  | feeding/water intake of mice return to normal, the activities increased significantly and reduce blood in the stool; also recorded: reduced | significantly reduced; also recorded: began reduce | significantly reduced; also recorded: structures of cells were arranged in neat, a small number of goblet cells and lymphocyte and neutrophil infiltration were disappeared; also recorded: well results for treating | 70 | 24 | 100 | 75 | reduced | began reduce | protective effects | no significant side effects | non-toxic | no significant differences | no significant differences | would change | significant differences with the model group
